Assay results: ChEMBL document CHEMBL4376895
The source made the active and inactive calls. The rule behind the calls is not given here. Positions of bridges follow the written chain, without caps; N, C: chain ends. Residues, ends and D or L forms follow the SMILES beside them.

What was measured:
Assay type in all cases: cell-based
[1] = target: T1, Neuronal acetylcholine receptor; alpha4/beta4 (Rattus norvegicus) (UniProt P09483+P12392); assay: Antagonist activity at rat alpha4beta4 nAChR expressed in Xenopus laevis oocytes assessed as inhibition of Ach-induced response up to 10 uM at -70 mV holding potential by two electrode voltage-clamp assay
[2] = target: T2, Neuronal acetylcholine receptor; alpha4/beta2 (Rattus norvegicus) (UniProt P09483+P12390); assay: Antagonist activity at rat alpha4beta2 nAChR expressed in Xenopus laevis oocytes assessed as inhibition of Ach-induced response up to 10 uM at -70 mV holding potential by two electrode voltage-clamp assay
[3] = target: T3, Neuronal acetylcholine receptor; alpha2/beta4 (Rattus norvegicus) (UniProt P12389+P12392); assay: Antagonist activity at rat alpha2beta4 nAChR expressed in Xenopus laevis oocytes assessed as inhibition of Ach-induced response up to 10 uM at -70 mV holding potential by two electrode voltage-clamp assay
[4] = target: T4, Neuronal acetylcholine receptor; alpha9/alpha10 (Homo sapiens) (UniProt Q9UGM1+Q9GZZ6); assay: Antagonist activity at human alpha9alpha10 nAChR expressed in Xenopus laevis oocytes assessed as inhibition of Ach-induced response at 100 nM at -70 mV holding potential by two electrode voltage-clamp assay relative to control
[5] = target: T2, Neuronal acetylcholine receptor; alpha4/beta2 (Rattus norvegicus); assay: Antagonist activity at rat alpha4beta2 nAChR expressed in Xenopus laevis oocytes assessed as inhibition of Ach-induced response at >10 uM at -70 mV holding potential by two electrode voltage-clamp assay
[6] = target: T4, Neuronal acetylcholine receptor; alpha9/alpha10 (Homo sapiens); assay: Antagonist activity at human alpha9alpha10 nAChR expressed in Xenopus laevis oocytes assessed as inhibition of Ach-induced response at 50 nM at -70 mV holding potential by two electrode voltage-clamp assay relative to control
[7] = target: Nicotinic acetylcholine receptor alpha9/alpha10 (Rattus norvegicus) (UniProt P43144+Q9JLB5); assay: Antagonist activity at rat alpha9alpha10 nAChR expressed in Xenopus laevis oocytes assessed as inhibition of Ach-induced response at 10 nM at -70 mV holding potential preincubated for 5 mins followed by compound washout by two electrode voltage-clamp assay
[8] = target: T1, Neuronal acetylcholine receptor; alpha4/beta4 (Rattus norvegicus); assay: Antagonist activity at rat alpha4beta4 nAChR expressed in Xenopus laevis oocytes assessed as inhibition of Ach-induced response at >10 uM at -70 mV holding potential by two electrode voltage-clamp assay
[9] = target: T3, Neuronal acetylcholine receptor; alpha2/beta4 (Rattus norvegicus); assay: Antagonist activity at rat alpha2beta4 nAChR expressed in Xenopus laevis oocytes assessed as inhibition of Ach-induced response at >10 uM at -70 mV holding potential by two electrode voltage-clamp assay

In the case of CC[C@H](C)[C@H](NC(=O)[C@H](CCCNC(=N)N)NC(=O)[C@H](CCCNC(=N)N)NC(=O)[C@H](C)NC(=O)[C@H](Cc1ccc(O)cc1)NC(=O)[C@H](CCCNC(=N)N)NC(=O)[C@H](CCCNC(=N)N)NC(=O)[C@H](CCCNC(=N)N)NC(=O)[C@H](CCCNC(=N)N)NC(=O)[C@H](CC(=O)O)NC(=O)[C@H](Cc1ccc(O)cc1)NC(=O)[C@@H]1CCCN1C(=O)[C@H](CO)NC(=O)[C@H](CCCNC(=N)N)NC(=O)[C@@H]1CSSC[C@H](NC(=O)[C@@H](N)[C@@H](C)O)C(=O)N[C@@H](CCCNC(=N)N)C(=O)N[C@@H](CO)C(=O)N[C@@H](CO)C(=O)NCC(=O)N[C@@H](CCCNC(=N)N)C(=O)N[C@@H](Cc2ccc(O)cc2)C(=O)N1)C(=O)N[C@H](C(=O)N[C@@H](CC(=O)O)C(=O)N[C@@H](C)C(=O)N[C@@H](C)C(=O)N[C@H](C(=O)O)C(C)C)[C@@H](C)O, the inhibition [1] is reported as “inactive”, the inhibition [2] is reported as “inactive” and the inhibition [3] is reported as “inactive”.

For CC[C@H](C)[C@H](NC(=O)[C@H](CCCNC(=N)N)NC(=O)[C@H](CCCNC(=N)N)NC(=O)[C@@H]1CSSC[C@H](NC(=O)[C@H](Cc2ccc(O)cc2)NC(=O)[C@H](CCCNC(=N)N)NC(=O)CNC(=O)[C@H](CO)NC(=O)[C@H](CO)NC(=O)[C@H](CCCNC(=N)N)NC(=O)[C@H](C)NC(=O)[C@@H](N)[C@@H](C)O)C(=O)N[C@@H](CCCNC(=N)N)C(=O)N[C@@H](CO)C(=O)N2CCC[C@H]2C(=O)N[C@@H](Cc2ccc(O)cc2)C(=O)N[C@@H](CC(=O)O)C(=O)N[C@@H](CCCNC(=N)N)C(=O)N[C@@H](CCCNC(=N)N)C(=O)N[C@@H](CCCNC(=N)N)C(=O)N[C@@H](CCCNC(=N)N)C(=O)N[C@@H](Cc2ccc(O)cc2)C(=O)N1)C(=O)N[C@H](C(=O)N[C@@H](CC(=O)O)C(=O)N[C@@H](C)C(=O)N[C@@H](C)C(=O)N[C@H](C(=O)O)C(C)C)[C@@H](C)O, the inhibition [1] was “inactive”, the inhibition [2] was “inactive” and the inhibition [3] was “inactive”.

In the case of CC[C@H](C)[C@@H]1NC(=O)[C@H](CCCNC(=N)N)NC(=O)[C@H](CCCNC(=N)N)NC(=O)[C@H](CO)NC(=O)[C@H](Cc2ccc(O)cc2)NC(=O)[C@H](CCCNC(=N)N)NC(=O)[C@H](CCCNC(=N)N)NC(=O)[C@H](CCCNC(=N)N)NC(=O)[C@H](CCCNC(=N)N)NC(=O)[C@H](CC(=O)O)NC(=O)[C@H](Cc2ccc(O)cc2)NC(=O)[C@@H]2CCCN2C(=O)[C@H](CO)NC(=O)[C@H](CCCNC(=N)N)NC(=O)[C@H](CO)NC(=O)[C@H](Cc2ccc(O)cc2)NC(=O)[C@H](CCCNC(=N)N)NC(=O)CNC(=O)[C@H](CO)NC(=O)[C@H](CO)NC(=O)[C@H](CCCNC(=N)N)NC(=O)[C@@H](NC(=O)[C@@H](N)[C@@H](C)O)CSSC[C@@H](C(=O)N[C@H](C(=O)O)C(C)C)NC(=O)[C@H](C)NC(=O)[C@H](CC(=O)O)NC(=O)[C@H]([C@@H](C)O)NC1=O (H-TCRSSGRYSRSPYDRRRRYSRRITDACV-OH; disulfide 2-27), the inhibition [1] is reported as “inactive”, the inhibition [2] is reported as “inactive” and the inhibition [3] is reported as “inactive”.

With CC[C@H](C)[C@@H]1NC(=O)[C@H](CCCNC(=N)N)NC(=O)[C@H](CCCNC(=N)N)NC(=O)[C@@H](NC(=O)[C@H](Cc2ccc(O)cc2)NC(=O)[C@H](CCCNC(=N)N)NC(=O)[C@H](CCCNC(=N)N)NC(=O)[C@H](CCCNC(=N)N)NC(=O)[C@H](CCCNC(=N)N)NC(=O)[C@H](CC(=O)O)NC(=O)[C@H](Cc2ccc(O)cc2)NC(=O)[C@@H]2CCCN2C(=O)[C@H](CO)NC(=O)[C@H](CCCNC(=N)N)NC(=O)[C@H](C)NC(=O)[C@H](Cc2ccc(O)cc2)NC(=O)[C@H](CCCNC(=N)N)NC(=O)CNC(=O)[C@H](CO)NC(=O)[C@H](CO)NC(=O)[C@H](CCCNC(=N)N)NC(=O)[C@H](C)NC(=O)[C@@H](N)[C@@H](C)O)CSSC[C@@H](C(=O)N[C@H](C(=O)O)C(C)C)NC(=O)[C@H](C)NC(=O)[C@H](CC(=O)O)NC(=O)[C@H]([C@@H](C)O)NC1=O (H-TARSSGRYARSPYDRRRRYCRRITDACV-OH; disulfide 20-27) the inhibition [1] was “inactive”, the inhibition [2] was “inactive” and the inhibition [3] was “inactive”.

With CC[C@H](C)[C@@H]1NC(=O)[C@H](CCCNC(=N)N)NC(=O)[C@H](CCCNC(=N)N)NC(=O)[C@@H](NC(=O)[C@H](Cc2ccc(O)cc2)NC(=O)[C@H](CCCNC(=N)N)NC(=O)[C@H](CCCNC(=N)N)NC(=O)[C@H](CCCNC(=N)N)NC(=O)[C@H](CCCNC(=N)N)NC(=O)[C@H](CC(=O)O)NC(=O)[C@H](Cc2ccc(O)cc2)NC(=O)[C@@H]2CCCN2C(=O)[C@H](CO)NC(=O)[C@H](CCCNC(=N)N)NC(=O)[C@H](CO)NC(=O)[C@H](Cc2ccc(O)cc2)NC(=O)[C@H](CCCNC(=N)N)NC(=O)CNC(=O)[C@H](CO)NC(=O)[C@H](CO)NC(=O)[C@H](CCCNC(=N)N)NC(=O)[C@H](CO)NC(=O)[C@@H](N)[C@@H](C)O)CSSC[C@@H](C(=O)N[C@H](C(=O)O)C(C)C)NC(=O)[C@H](C)NC(=O)[C@H](CC(=O)O)NC(=O)[C@H]([C@@H](C)O)NC1=O (H-TSRSSGRYSRSPYDRRRRYCRRITDACV-OH; disulfide 20-27) the inhibition [1] was “inactive”, the inhibition [2] was “inactive” and the inhibition [3] was “inactive”.

In the case of H-TARSSGRYARSPYDRRRRYSRRITDASV-OH, the inhibition [4] is reported as 100%, the inhibition [5] is reported as “Active” and the inhibition [1] is reported as “inactive”. The inhibition [6] was 74%, the inhibition [2] was “inactive” and the inhibition [7] was “Active”. For the same compound, the inhibition [8] was “Active”, the inhibition [3] was “inactive” and the inhibition [9] was “Active”.

For H-TARSSGRYARSPYDRRRRYARRITDAAV-OH, the inhibition [1] was “inactive”, the inhibition [2] was “inactive” and the inhibition [3] was “inactive”.

CC[C@H](C)[C@H](NC(=O)[C@H](CCCNC(=N)N)NC(=O)[C@H](CCCNC(=N)N)NC(=O)[C@H](CO)NC(=O)[C@H](Cc1ccc(O)cc1)NC(=O)[C@H](CCCNC(=N)N)NC(=O)[C@H](CCCNC(=N)N)NC(=O)[C@H](CCCNC(=N)N)NC(=O)[C@H](CCCNC(=N)N)NC(=O)[C@H](CC(=O)O)NC(=O)[C@H](Cc1ccc(O)cc1)NC(=O)[C@@H]1CCCN1C(=O)[C@H](CO)NC(=O)[C@H](CCCNC(=N)N)NC(=O)[C@@H]1CSSC[C@H](NC(=O)[C@@H](N)[C@@H](C)O)C(=O)N[C@@H](CCCNC(=N)N)C(=O)N[C@@H](CO)C(=O)N[C@@H](CO)C(=O)NCC(=O)N[C@@H](CCCNC(=N)N)C(=O)N[C@@H](Cc2ccc(O)cc2)C(=O)N1)C(=O)N[C@H](C(=O)N[C@@H](CC(=O)O)C(=O)N[C@@H](C)C(=O)N[C@@H](CO)C(=O)N[C@H](C(=O)O)C(C)C)[C@@H](C)O was tested, and the inhibition [1] was “inactive”, the inhibition [2] was “inactive” and the inhibition [3] was “inactive”.

For CC[C@H](C)[C@H](NC(=O)[C@H](CCCNC(=N)N)NC(=O)[C@H](CCCNC(=N)N)NC(=O)[C@@H]1CSSC[C@H](NC(=O)[C@H](Cc2ccc(O)cc2)NC(=O)[C@H](CCCNC(=N)N)NC(=O)CNC(=O)[C@H](CO)NC(=O)[C@H](CO)NC(=O)[C@H](CCCNC(=N)N)NC(=O)[C@H](CO)NC(=O)[C@@H](N)[C@@H](C)O)C(=O)N[C@@H](CCCNC(=N)N)C(=O)N[C@@H](CO)C(=O)N2CCC[C@H]2C(=O)N[C@@H](Cc2ccc(O)cc2)C(=O)N[C@@H](CC(=O)O)C(=O)N[C@@H](CCCNC(=N)N)C(=O)N[C@@H](CCCNC(=N)N)C(=O)N[C@@H](CCCNC(=N)N)C(=O)N[C@@H](CCCNC(=N)N)C(=O)N[C@@H](Cc2ccc(O)cc2)C(=O)N1)C(=O)N[C@H](C(=O)N[C@@H](CC(=O)O)C(=O)N[C@@H](C)C(=O)N[C@@H](CO)C(=O)N[C@H](C(=O)O)C(C)C)[C@@H](C)O, the inhibition [1] was “inactive”, the inhibition [2] was “inactive” and the inhibition [3] was “inactive”.

For H-TSRSSGRYSRSPYDRRRRYARRITDAAV-OH, the inhibition [1] was “inactive”, the inhibition [2] was “inactive” and the inhibition [3] was “inactive”.

For H-TSRSSGRYSRSPYDRRRRYSRRITDASV-OH, the inhibition [1] was “inactive”, the inhibition [2] was “inactive” and the inhibition [3] was “inactive”.

In the case of CC[C@H](C)[C@@H]1NC(=O)[C@H](CCCNC(=N)N)NC(=O)[C@H](CCCNC(=N)N)NC(=O)[C@H](C)NC(=O)[C@H](Cc2ccc(O)cc2)NC(=O)[C@H](CCCNC(=N)N)NC(=O)[C@H](CCCNC(=N)N)NC(=O)[C@H](CCCNC(=N)N)NC(=O)[C@H](CCCNC(=N)N)NC(=O)[C@H](CC(=O)O)NC(=O)[C@H](Cc2ccc(O)cc2)NC(=O)[C@@H]2CCCN2C(=O)[C@H](CO)NC(=O)[C@H](CCCNC(=N)N)NC(=O)[C@H](C)NC(=O)[C@H](Cc2ccc(O)cc2)NC(=O)[C@H](CCCNC(=N)N)NC(=O)CNC(=O)[C@H](CO)NC(=O)[C@H](CO)NC(=O)[C@H](CCCNC(=N)N)NC(=O)[C@@H](NC(=O)[C@@H](N)[C@@H](C)O)CSSC[C@@H](C(=O)N[C@H](C(=O)O)C(C)C)NC(=O)[C@H](C)NC(=O)[C@H](CC(=O)O)NC(=O)[C@H]([C@@H](C)O)NC1=O (H-TCRSSGRYARSPYDRRRRYARRITDACV-OH; disulfide 2-27), the inhibition [1] is reported as “inactive”, the inhibition [2] is reported as “inactive” and the inhibition [3] is reported as “inactive”.
